The subject of experiment [1] is A. flavus strain IFM50915. As to the kind of experiment: A. flavus respiratory tract infection model. Type of experiment: in vivo, mice. The conditions noted are these: for Combined effects in mouse Aspergillus flavus infection model: combination with the test compound of the invention. Here is the method: Female DBA/2N mice (age 8 weeks, Charles River Laboratories Japan, Inc.) were subcutaneously administered 200 mg/kg of 5-fluorouracil 5 or 6 days prior to infection in order to put the mice into a compromised state.
A. fumigatus strain IFM52108 and A. flavus strain IFM50915 were used.
A liquid containing spores of A. flavus strain IFM50915 stored at −80° C. was thawed, and the number of spores was counted using a hemocytometer followed by diluting with sterile physiological saline containing 0.05% Tween 80 to a concentration of 0.6×10^6 cells/mL to 1.0×10^6 cells/mL to obtain an inoculation fungus liquid.
50 μl of inoculation fungus liquid were inoculated into the nasal cavities of 9-week-old mice at 0.3×10^5 cells/mouse to 1.25×10^5 cells/mouse under Ketalar anesthesia.
0.1 mL to 0.2 mL of each drug solution (dissolved in sterile physiological saline or 5% glucose solution, or dissolved in sterile physiological saline or 5% glucose solution containing 6.5% dimethylsulfoxide and 3.5% Tween 80) was administered to the individual and combination dose groups either into the peritoneal cavity or into the stomach using a gastric cannula corresponding to the administration route of the drug for 3 to 4 days at the rate of 1 to 2 times per day starting 0.5 hours to 1 hour after inoculation of fungus.
There were 5 to 9 animals in each group.
Infection protection results were assessed on survival rate 14 days after infection.

Experiment [2] concerns A. flavus. As to the kind of experiment: In vitro combination effects, checkerboard method by micro dilution (FIC index). Type of experiment: cell-based, Aspergillus flavus. The following applies: A. flavus (4 strains), Table 1. As to the method:
(§1) A clinically isolated strain retained by the Medical Mycology Research Center of Chiba University (Code No. IFM) and a clinically isolated strain retained by the Life Science Research Center of Gifu University (Code No. E) were used as Candida and Aspergillus strains.
(§2) An Aspergillus strain stored frozen at −80° C., or spores obtained by static culturing at 35° C. for 1 week in Potato Dextrose agar medium (PDA, Eiken Chemical Co., Ltd.) followed by scraping from the container with a metal loop, was diluted with RPMI 1640 medium containing 0.165 M MOPS to prepare a fungus liquid having a fungus concentration of 0.75×10^4 cells/mL to 1.33×10^4 cells/mL.
(§3) Test Compound 1 (0.0005 μg/mL to 1.56 μg/mL) in the horizontal rows (12 wells) of a 96-well flat-bottom plate, and an antifungal agent in the form of ravuconazole (0.0015 μg/mL to 6.25 μg/mL), fluconazole (0.008 μg/mL to 32 μg/mL), voriconazole (0.0002 μg/mL to 8 μg/mL), micafungin (0.0005 μg/mL to 0.25 μg/mL), caspofungin (0.0005 μg/mL to 1 μg/mL) or amphotericin B (0.008 μg/mL to 8 μg/mL) in the vertical rows (8 wells) of the flat-bottom plate were prepared by diluting so as to blend together using RPMI 1640 medium containing 0.165 M MOPS to obtain a control group, a single Test Compound 1 group, each one of antifungal agents groups and combination groups of Test Compound 1+each one of antifungal agents.
(§4) The fungus liquids prepared in (1) were inoculated into the wells of 96-well flat-bottom plate containing 20 μL/well to 75 μL/well of the diluted test drug liquids prepared in (2) at 80 μL/well to 125 μL/well, followed by aerobically static culturing for 25 hours to 48 hours at 35° C.
(§5) Combination effects of Test Compound 1 and the antifungal agents were measured with the checkerboard method by micro dilution.
(§6) Interaction between both drugs was assessed by calculating the FIC index using the calculation formula indicated below.
(§7) The FIC index was calculated for each combination of antifungal agent concentrations that inhibited fungal growth, and the minimum value of the resulting FIC index was used as a combination FIC index.
(§8) A combination FIC index of 0.5 or less was evaluated as indicating synergistic action, that of 0.5 to 1 or less was evaluated as indicating additive action, and that of 1 to 4 or less was evaluated as indicating indifferent action.
(§9) FIC Index=(MIC value of drug A during combination use/MIC value of drug A when used alone)+(MIC value of drug B during combination use/MIC value of drug B when used alone) (Calculation Formula)

The subject of experiment [3] is C. albicans. The experiment is described as above. Type of experiment: cell-based, Candida albicans. The conditions noted are these: C. albicans (20 strains); combination use with Test Compound 1. As to the method:
as §1
(§10) Fungus liquid obtained by static culturing at 35° C. for 48 hours in Sabouraud Dextrose liquid medium (SDB, Becton, Dickinson and Co.) was diluted with RPMI 1640 medium (Nissui Pharmaceutical Co., Ltd.) containing 0.165 M 3-(N-morpholino)propanesulfonic acid (MOPS) to prepare a fungus liquid having a fungus concentration of 1×10^3 cells/mL to 2×10^3 cells/mL.
as §3, §4, §5, §6, §7, §8, §9

For experiment [4], the system named is A. fumigatus. The description is as above. It is filed as cell-based, Aspergillus fumigatus. The conditions noted are these: A. fumigatus (18 strains). As to the method: as §1, §2, §3, §4, §5, §6, §7, §8, §9
Experiment [5] deals with C. glabrata. The description is as above. Type of experiment: cell-based, Candida glabrata. The following applies: for Ratio indicating Additive effect of combination use with Test Compound 1 / Ratio indicating Antagonistic effect of combination use with Test Compound 1 / Ratio indicating Indifferent effect of combination use with Test Compound 1 / Ratio indicating Synergistic effect of combination use with Test Compound 1: C. glabrata (10 strains). As to the method:
as §1, §10, §3, §4, §5, §6, §7, §8, §9

Experiment [6] relates to C. tropicalis. The experiment is described as above. It is filed as cell-based, Candida tropicalis. The following applies: C. tropicalis (10 strains); combination use with Test Compound 1. Here is the method: as §1, §10, §3, §4, §5, §6, §7, §8, §9

Molecules are shown by their SMILES.

With `Nc1c(-c2cc(Cc3ccc(COc4ccccn4)cc3)no2)ccc[n+]1COP(=O)([O-])O` [Test Compound 2, 2-amino-1-((phosphonooxy)methyl)-3-(3-((4-((2-pyridinyloxy)methyl)phenyl)methyl)-5-isoxazolyl)-pyridinium], the 14-day survival rate in experiment [1] (Test Compound 2 2.5 mg/kg, Table 5 CSFG experiment) amounted to 0%; in experiment [1] (Test Compound 2 5 mg/kg, Table 5 CSFG experiment), 50%; in experiment [1] (Test Compound 2 5 mg/kg, Table 5 L-AmB experiment) it was 0%; in experiment [1] (Test Compound 2 5 mg/kg, Table 5 MCFG experiment) it was 22.2%; in experiment [1] (Test Compound 2 10 mg/kg, Table 5 MCFG experiment), 55.6%.

Regarding `CC[C@H](C)C[C@H](C)CCCCCCCCC(=O)N[C@H]1C[C@@H](O)[C@@H](NCCN)NC(=O)[C@@H]2[C@@H](O)CCN2C(=O)[C@H]([C@H](O)CCN)NC(=O)[C@H]([C@H](O)[C@@H](O)c2ccc(O)cc2)NC(=O)[C@@H]2C[C@@H](O)CN2C(=O)[C@H]([C@@H](C)O)NC1=O` [Caspofungin, caspofungin], the “Ratio indicating Additive effect of combination use with Test Compound 1” value (shortened to “Ratio indicating Additive effect”) in experiment [2] was 25%; in experiment [3] it was 85%; in experiment [4], 22%; in experiment [5], 100%; in experiment [6], 90%. Also, the “Ratio indicating Antagonistic effect of combination use with Test Compound 1” value (“Ratio indicating Antagonistic effect” below) in experiment [2], in experiment [3], in experiment [4], in experiment [5] and in experiment [6] was 0% each time. Further, the “Ratio indicating Indifferent effect of combination use with Test Compound 1” value (from here on “Ratio indicating Indifferent effect”) in experiment [2] worked out at 0%; in experiment [3], 15%; in experiment [4], 0%; in experiment [5] it was 0%; in experiment [6] it was 10%. Moreover, the “Ratio indicating Synergistic effect of combination use with Test Compound 1” value (from here on “Ratio indicating Synergistic effect”) was 75% in experiment [2]; 0% in experiment [3]; 78% in experiment [4]; 0% in experiment [5]; 0% in experiment [6]. Moreover, the 14-day survival rate is 37.5% in experiment [1] (CSFG 0.1 mg/kg, Table 5); 50% in experiment [1] (CSFG 0.2 mg/kg, Table 5); 20% in experiment [1] (CSFG 0.25 mg/kg, Table 4); 60% in experiment [1] (CSFG 0.5 mg/kg, Table 4). Moreover, the “Combined effects in mouse Aspergillus flavus infection model” value in experiment [1] is reported as “synergistic combined effects”.

With `OC(Cn1cncn1)(Cn1cncn1)c1ccc(F)cc1F` [Fluconazole, fluconazole], in experiment [3], the “Ratio indicating Additive effect” value is reported as 80%, the “Ratio indicating Antagonistic effect” value stood at 0%, the “Ratio indicating Indifferent effect” value is reported as 10% and the “Ratio indicating Synergistic effect” value is 10%. In experiment [5], the “Ratio indicating Additive effect” value came out at 90%, the “Ratio indicating Antagonistic effect” value is on record as 0%, the “Ratio indicating Indifferent effect” value came to 10% and the “Ratio indicating Synergistic effect” value came out at 0%. Also, in experiment [6], the “Ratio indicating Additive effect” value is 10%, the “Ratio indicating Antagonistic effect” value is listed as 0%, the “Ratio indicating Indifferent effect” value amounted to 0% and the “Ratio indicating Synergistic effect” value is on record as 90%.

In the case of `C[C@@H]1[C@H](O)[C@@H](C)/C=C/C=C/C=C/C=C/C=C/C=C/C=C/[C@H](O[C@@H]2O[C@H](C)[C@@H](O)[C@H](N)[C@@H]2O)C[C@@H]2O[C@](O)(C[C@@H](O)C[C@@H](O)[C@H](O)CC[C@@H](O)C[C@@H](O)CC(=O)O[C@H]1C)C[C@H](O)[C@H]2C(=O)O` [Amphotericin B, amphotericin B], the “Ratio indicating Additive effect” value in experiment [2] worked out at 25%; in experiment [3] it was 85%; in experiment [4], 33%; in experiment [5], 70%; in experiment [6] it was 90%. Further, the “Ratio indicating Antagonistic effect” value in experiment [2], in experiment [3], in experiment [4], in experiment [5] and in experiment [6] was 0% throughout. Besides, the “Ratio indicating Indifferent effect” value in experiment [2] was determined as 75%; in experiment [3], 10%; in experiment [4], 67%; in experiment [5], 0%; in experiment [6], 10%. For the same compound, the “Ratio indicating Synergistic effect” value was found to be 0% in experiment [2]; 5% in experiment [3]; 0% in experiment [4]; 30% in experiment [5]; 0% in experiment [6]. For the same compound, the 14-day survival rate was 20% in experiment [1] (AMPH 0.5 mg/kg) and 0% in experiment [1] (AMPH 1 mg/kg). For the same compound, the “Combined effects in mouse Aspergillus flavus infection model” value in experiment [1] is on record as “synergistic combined effects”. Moreover, the “Effect of combination use with Test Compound 1 (FIC index evaluation)” value in experiment [5] (Candida glabrata strain IFM46888, resistant to fluconazole) is given as “synergistic (A combination FIC index of 0.5 or less was evaluated as indicating synergistic action)”.

The values above are taken from patent US20130288956A1, “COMBINED PHARMACEUTICAL COMPOSITION AS ANTIFUNGAL AGENT” (priority 2010, published 2013).
